From patent US20210122730A1, “GLUCOCORTICOID RECEPTOR MODULATORS” (ORIC Pharmaceuticals, Inc., priority 2017, published 2021)

Target: T1, GR (Homo sapiens, UniProt P04150)
T1 construct: expressed in transfected cells; host or cells: CHO-K1
T1 sequence (P04150 1-777): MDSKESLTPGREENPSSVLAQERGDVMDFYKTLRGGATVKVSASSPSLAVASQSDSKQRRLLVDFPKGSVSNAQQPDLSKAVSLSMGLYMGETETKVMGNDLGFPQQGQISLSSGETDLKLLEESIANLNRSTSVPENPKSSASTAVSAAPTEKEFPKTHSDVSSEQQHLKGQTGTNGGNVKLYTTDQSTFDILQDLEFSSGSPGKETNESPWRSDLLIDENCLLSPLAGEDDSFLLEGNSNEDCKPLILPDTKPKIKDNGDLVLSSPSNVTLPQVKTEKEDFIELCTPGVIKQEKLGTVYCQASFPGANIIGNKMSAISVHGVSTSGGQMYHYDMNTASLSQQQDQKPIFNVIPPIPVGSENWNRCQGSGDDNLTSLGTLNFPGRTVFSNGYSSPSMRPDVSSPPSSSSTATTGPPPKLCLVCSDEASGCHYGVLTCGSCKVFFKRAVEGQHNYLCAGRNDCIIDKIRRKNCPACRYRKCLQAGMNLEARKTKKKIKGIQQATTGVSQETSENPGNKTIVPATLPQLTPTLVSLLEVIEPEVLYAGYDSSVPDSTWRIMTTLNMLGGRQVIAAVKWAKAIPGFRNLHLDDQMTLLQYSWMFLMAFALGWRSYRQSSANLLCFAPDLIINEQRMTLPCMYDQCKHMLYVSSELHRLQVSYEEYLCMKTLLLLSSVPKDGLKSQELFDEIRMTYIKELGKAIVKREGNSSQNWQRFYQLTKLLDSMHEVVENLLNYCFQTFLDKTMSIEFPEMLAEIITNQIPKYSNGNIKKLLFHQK
Test: In Vitro GR Luciferase Reporter Assay (antagonist mode, CHO-K1-GR-MMTV-Luc reporter cells)
Type: cell-based
Conditions: antagonist mode, 10 nM Dexamethasone
How it was run: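 Antagonist mode: compounds (8 serial 1:5 dilutions) added to GR-MMTV-luciferase CHO-K1 reporter cells co-exposed to 10 nM dexamethasone final, in phenol red-free DMEM plus 10% CSS. After roughly 18-24 h at 37° C, OneGlo luminescence read and IC50 calculated.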

IC50, ≤ 100 nM:
CN([C@H]1CCC2=Cc3c(cnn3-c3ccc(F)cc3)C[C@]2(C(=O)c2nccs2)C1)S(=O)(=O)c1ccc(Cl)cc1 [Example 143, 4-chloro-N-((4aS,6S)-1-(4-fluorophenyl)-4a-(thiazole-2-carbonyl)-4,4a,5,6,7,8-hexahydro-1H-benzo[f]indazol-6-yl)-N-methylbenzenesulfonamide]
CCN([C@H]1CCC2=Cc3c(cnn3-c3ccc(F)cc3)C[C@]2(C(=O)c2cc(C(F)(F)F)ccn2)C1)S(=O)(=O)c1cnn(C)n1 [Example 145, N-ethyl-N-((4aS,6S)-1-(4-fluorophenyl)-4a-(4-(trifluoromethyl)picolinoyl)-4,4a,5,6,7,8-hexahydro-1H-benzo[f]indazol-6-yl)-2-methyl-2H-1,2,3-triazole-4-sulfonamide]
CN([C@H]1CCC2=Cc3c(cnn3-c3ccc(F)cc3)C[C@]2(C(=O)c2ccc(C3CC3)cn2)C1)S(=O)(=O)c1ccc(Cl)cc1 [Example 146, 4-chloro-N-((4aS,6S)-4a-(5-cyclopropylpicolinoyl)-1-(4-fluorophenyl)-4,4a,5,6,7,8-hexahydro-1H-benzo[f]indazol-6-yl)-N-methylbenzenesulfonamide]
Cn1ccc(S(=O)(=O)N(C2CC2)[C@H]2CCC3=Cc4c(cnn4-c4ccc(F)cc4)C[C@]3(C(=O)c3nccs3)C2)n1 [Example 147, N-cyclopropyl-N-((4aS,6S)-1-(4-fluorophenyl)-4a-(thiazole-2-carbonyl)-4,4a,5,6,7,8-hexahydro-1H-benzo[f]indazol-6-yl)-1-methyl-1H-pyrazole-3-sulfonamide]
CN([C@H]1CCC2=Cc3c(cnn3-c3ccc(F)cc3)C[C@]2(C(=O)c2ncc(C3CC3)s2)C1)S(=O)(=O)c1cnn(C)n1 [Example 148, N-((4aS,6S)-4a-(5-cyclopropylthiazole-2-carbonyl)-1-(4-fluorophenyl)-4,4a,5,6,7,8-hexahydro-1H-benzo[f]indazol-6-yl)-N,2-dimethyl-2H-1,2,3-triazole-4-sulfonamide]
CN([C@H]1CCC2=Cc3c(cnn3-c3ccc(F)cc3)C[C@]2(C(=O)c2cc(C3CC3)ccn2)C1)S(=O)(=O)c1cnn(C)n1 [Example 149, N-((4aS,6S)-4a-(4-cyclopropylpicolinoyl)-1-(4-fluorophenyl)-4,4a,5,6,7,8-hexahydro-1H-benzo[f]indazol-6-yl)-N,2-dimethyl-2H-1,2,3-triazole-4-sulfonamide]
CN([C@H]1CCC2=Cc3c(cnn3-c3ccc(F)cc3)C[C@]2(C(=O)c2nc(C3CC3)cs2)C1)S(=O)(=O)c1cnn(C)n1 [Example 150, N-((4aS,6S)-4a-(4-cyclopropylthiazole-2-carbonyl)-1-(4-fluorophenyl)-4,4a,5,6,7,8-hexahydro-1H-benzo[f]indazol-6-yl)-N,2-dimethyl-2H-1,2,3-triazole-4-sulfonamide]
CN([C@H]1CCC2=Cc3c(cnn3-c3ccc(F)cc3)C[C@]2(C(=O)c2ncc(C(F)(F)F)s2)C1)S(=O)(=O)c1cnn(C)n1 [Example 151, N-((4aS,6S)-1-(4-fluorophenyl)-4a-(5-(trifluoromethyl)thiazole-2-carbonyl)-4,4a,5,6,7,8-hexahydro-1H-benzo[f]indazol-6-yl)-N,2-dimethyl-2H-1,2,3-triazole-4-sulfonamide]
Cn1ccc(S(=O)(=O)N(C2CC2)[C@H]2CCC3=Cc4c(cnn4-c4ccc(F)cc4)C[C@]3(C(=O)c3ccc(C4CC4)cn3)C2)n1 [Example 152, N-cyclopropyl-N-((4aS,6S)-4a-(5-cyclopropylpicolinoyl)-1-(4-fluorophenyl)-4,4a,5,6,7,8-hexahydro-1H-benzo[f]indazol-6-yl)-1-methyl-1H-pyrazole-3-sulfonamide]
CCN([C@H]1CCC2=Cc3c(cnn3-c3ccc(F)cc3)C[C@]2(C(=O)c2ncc(C3CC3)s2)C1)S(=O)(=O)c1cnn(C)c1 [Example 154, N-((4aS,6S)-4a-(5-cyclopropylthiazole-2-carbonyl)-1-(4-fluorophenyl)-4,4a,5,6,7,8-hexahydro-1H-benzo[f]indazol-6-yl)-N-ethyl-1-methyl-1H-pyrazole-4-sulfonamide]
CCn1ccc(S(=O)(=O)N(C)[C@H]2CCC3=Cc4c(cnn4-c4ccc(F)cc4)C[C@]3(C(=O)c3cc(C(F)(F)F)ccn3)C2)n1 [Example 157, 1-ethyl-N-((4aS,6S)-1-(4-fluorophenyl)-4a-(4-(trifluoromethyl)picolinoyl)-4,4a,5,6,7,8-hexahydro-1H-benzo[f]indazol-6-yl)-N-methyl-1H-pyrazole-3-sulfonamide]
CCn1cc(S(=O)(=O)N(C2CC2)[C@H]2CCC3=Cc4c(cnn4-c4ccc(F)cc4)C[C@]3(C(=O)c3cc(C(F)(F)F)ccn3)C2)cn1 [Example 158, N-cyclopropyl-1-ethyl-N-((4aS,6S)-1-(4-fluorophenyl)-4a-(4-(trifluoromethyl)picolinoyl)-4,4a,5,6,7,8-hexahydro-1H-benzo[f]indazol-6-yl)-1H-pyrazole-4-sulfonamide]
O=C(c1nccs1)[C@]12Cc3cnn(-c4ccc(F)cc4)c3C=C1CC[C@H](N(C1CC1)S(=O)(=O)c1ccc(F)cc1)C2 [Example 159, N-cyclopropyl-4-fluoro-N-((4aS,6S)-1-(4-fluorophenyl)-4a-(thiazole-2-carbonyl)-4,4a,5,6,7,8-hexahydro-1H-benzo[f]indazol-6-yl)benzenesulfonamide]
CN([C@H]1CCC2=Cc3c(cnn3-c3ccc(F)cc3)C[C@]2(C(=O)c2nccs2)C1)S(=O)(=O)c1cnn(C)n1 [Example 161, N-((4aS,6S)-1-(4-fluorophenyl)-4a-(thiazole-2-carbonyl)-4,4a,5,6,7,8-hexahydro-1H-benzo[f]indazol-6-yl)-N,2-dimethyl-2H-1,2,3-triazole-4-sulfonamide]
CN([C@H]1CCC2=Cc3c(cnn3-c3ccc(F)cc3)C[C@]2(C(=O)c2nccs2)C1)S(=O)(=O)c1cnn(C2CC2)n1 [Example 162, 2-cyclopropyl-N-((4aS,6S)-1-(4-fluorophenyl)-4a-(thiazole-2-carbonyl)-4,4a,5,6,7,8-hexahydro-1H-benzo[f]indazol-6-yl)-N-methyl-2H-1,2,3-triazole-4-sulfonamide]
CN([C@H]1CCC2=Cc3c(cnn3-c3ccc(F)cc3)C[C@]2(C(=O)c2cc(C(F)(F)F)ccn2)C1)S(=O)(=O)c1cn(C)cn1 [Example 163, N-((4aS,6S)-1-(4-fluorophenyl)-4a-(4-(trifluoromethyl)picolinoyl)-4,4a,5,6,7,8-hexahydro-1H-benzo[f]indazol-6-yl)-N,1-dimethyl-1H-imidazole-4-sulfonamide]
CCN([C@H]1CCC2=Cc3c(cnn3-c3ccc(F)cc3)C[C@]2(C(=O)c2nccs2)C1)S(=O)(=O)c1cnn(C(F)F)c1 [Example 165, 1-(difluoromethyl)-N-ethyl-N-((4aS,6S)-1-(4-fluorophenyl)-4a-(thiazole-2-carbonyl)-4,4a,5,6,7,8-hexahydro-1H-benzo[f]indazol-6-yl)-1H-pyrazole-4-sulfonamide]
CCN([C@H]1CCC2=Cc3c(cnn3-c3ccc(F)cc3)C[C@]2(C(=O)c2nccs2)C1)S(=O)(=O)c1ccn(C)n1 [Example 167, N-ethyl-N-((4aS,6S)-1-(4-fluorophenyl)-4a-(thiazole-2-carbonyl)-4,4a,5,6,7,8-hexahydro-1H-benzo[f]indazol-6-yl)-1-methyl-1H-pyrazole-3-sulfonamide]
Cn1cc(S(=O)(=O)N(C2CC2)[C@H]2CCC3=Cc4c(cnn4-c4ccc(F)cc4)C[C@]3(C(=O)c3nccs3)C2)cn1 [Example 168, N-cyclopropyl-N-((4aS,6S)-1-(4-fluorophenyl)-4a-(thiazole-2-carbonyl)-4,4a,5,6,7,8-hexahydro-1H-benzo[f]indazol-6-yl)-1-methyl-1H-pyrazole-4-sulfonamide]
CN([C@H]1CCC2=Cc3c(cnn3-c3ccc(F)cc3)C[C@]2(C(=O)c2cc(C(F)(F)F)ccn2)C1)S(=O)(=O)c1cnnn1C [Example 169, N-((4aS,6S)-1-(4-fluorophenyl)-4a-(4-(trifluoromethyl)picolinoyl)-4,4a,5,6,7,8-hexahydro-1H-benzo[f]indazol-6-yl)-N,1-dimethyl-1H-1,2,3-triazole-5-sulfonamide]
Cn1cc(S(=O)(=O)N(C2CC2)[C@H]2CCC3=Cc4c(cnn4-c4ccc(F)cc4)C[C@]3(C(=O)c3ncc(C4CC4)s3)C2)cn1 [Example 171, N-cyclopropyl-N-((4aS,6S)-4a-(5-cyclopropylthiazole-2-carbonyl)-1-(4-fluorophenyl)-4,4a,5,6,7,8-hexahydro-1H-benzo[f]indazol-6-yl)-1-methyl-1H-pyrazole-4-sulfonamide]
